Measurements reported in US20230123585A1, “COMPOSITIONS AND METHODS FOR TREATING OR PREVENTING CANCER USING DEUBIQUITINASE INHIBITORS” (The University of Chicago, priority 2020, published 2023).

Tests used:
A375 and HCT116 cells = assay: Cell viability by SRB assay of A375 and HCT116 cells treated with Ezh2 inhibitors without or with EOAI; type: cell-based; settings: 48 hr; A375: GSK343 10 μM, UNC1999 5 μM, 0.5 μM EOAI; HCT116: GSK343 10 μM, UNC1999 10 μM, 1 μM EOAI
Protocol: FIGS. 20A-20B: (A) A375 cells were treated with GSK343 10 μM, UNC1999 5μM without or with 0.5 μM EOAI3402143 (EOAI) for 48 hr before measuring cell viability by SRB assay. Data are presented as relative to the R-WT cells without drug treatment (n=3 per group, data represent mean±SEM). (B) HCT116 cells were treated with GSK343 10 μM, UNC1999 10 μM without or with 1 μM EOAI3402143 (EOAI) for 48 hr before measuring cell viability by SRB assay. Data are presented as relative to the R-WT cells without drug treatment (n=3 per group, data represent mean±SEM).
Cell Proliferation Assay. Cells were seeded in 96-well plates. The cell proliferation was assessed by SRB assay (Vichai and Kirtikara, 2006) at various time points. Briefly, cells after treatments were fixed with 10% TCA then stained with 0.05% SRB. After wash, bound SRB was solubilized with 10 mM Trizma base and measured at 515 nm.

[1] = system: polyA RNA m^6A in JQ1-insensitive cells (8902 cell line); assay: polyA RNA m^6A level upon JQ1 treatment in JQ1-insensitive PDAC cells; type: cell-based
Excerpt: (§1) FIGS. 15A-15D: The results of the inhibition rates of JQ1 in different PDAC cell lines. (B) The correlation analysis of gene expression of BRD family genes and METTL3 in PDAC from TGCA and GTEx database. (C) The polyA RNA m6A level changes upon JQ1 treatment compared to the DMSO control in different PDAC cell lines. (D) The cell viability changes with JQ1 treatment with a series concentrations in the JQ1-insensitive cells upon the knockdown of METTL3 and the JQ1-sensitive cells upon the overexpression of METTL3 compared to control. […]
(§2) LC-MS/MS quantification of m^6A in poly(A) RNA. mRNA was extracted from the total RNA using 2 rounds of the Dynabeads mRNA purification kit. […] The nucleosides were quantified by using the nucleoside-to-base ion mass transitions of 282 to 150 (m^6A) and 268 to 136 (A). Quantification was carried out by comparison with a standard curve obtained from pure nucleoside. The ratio of m^6A to A was calculated based on the calibrated concentrations (Liu et al., 2018).

[2] = system: polyA RNA m^6A in JQ1-sensitive cells (Mia cell); assay: polyA RNA m^6A level upon JQ1 treatment in JQ1-sensitive PDAC cells; type: cell-based
Excerpt: as §1, §2

[3] = system: JQ1-insensitive PDAC cells; assay: Cell viability with JQ1 in JQ1-insensitive cells upon knockdown of METTL3; type: cell-based; settings: series of JQ1 concentrations
Excerpt: (§3) FIGS. 15A-15D: The results of the inhibition rates of JQ1 in different PDAC cell lines. (B) The correlation analysis of gene expression of BRD family genes and METTL3 in PDAC from TGCA and GTEx database. (C) The polyA RNA m6A level changes upon JQ1 treatment compared to the DMSO control in different PDAC cell lines. (D) The cell viability changes with JQ1 treatment with a series concentrations in the JQ1-insensitive cells upon the knockdown of METTL3 and the JQ1-sensitive cells upon the overexpression of METTL3 compared to control.

PDAC cell lines = assay: Inhibition rates of JQ1 in a panel of 9 PDAC cell lines; type: cell-based
Excerpt: as §3

JQ1-sensitive PDAC cells = assay: Cell viability with JQ1 in JQ1-sensitive cells upon overexpression of METTL3; type: cell-based; settings: series of JQ1 concentrations
Excerpt: as §3

METTL3 in Mia cell = assay: METTL3 RNA and protein level changes with JQ1 treatment in JQ1-sensitive cells; type: cell-based; settings: dose-dependent
Excerpt: (§4) FIGS. 16A-16B: (A) The protein level changes of METTL3 with JQ1 treatment in the JQ1-insensitive cells compared to DMSO control (left); the RNA level changes of METTL3 the JQ1-insensitive cells with JQ1 treatment compared to DMSO control (mid); the polyA RNA m6A level changes in JQ1-insensitive cells among the knockdown control and DMSO control samples, the knockdown control and JQ1 treatment samples, the METTL3 knockdown and DMSO control, and the METTL3 knockdown and JQ1 treatment samples (right). (B) The protein level changes of METTL3 with JQ1 treatment in the JQ1-sensitive cells compared to DMSO control (left); the RNA level changes of METTL3 the JQ1-sensitive cells with JQ1 treatment compared to DMSO control (mid); the polyA RNA m6A level changes in JQ1-sensitive cells among the knockdown control and DMSO control samples, the knockdown control and JQ1 treatment samples, the METTL3 knockdown and DMSO control, and the METTL3 knockdown and JQ1 treatment samples (right).

METTL3 in 8902 cell line = assay: METTL3 RNA and protein level changes with JQ1 treatment in JQ1-insensitive cells; type: cell-based; settings: 8902 cell line (JQ1-insensitive)
Excerpt: as §4

[4] = system: A375 and HCT-116 stable transfectants; assay: Cell viability by SRB assay of A375 and HCT-116 stable transfectants treated with USP5 inhibitors; type: cell-based; settings: A375 1 μM, HCT-116 2 μM EOAI, 48 hr
Protocol: FIGS. 6A-6H: Phosphorylation of the m^6A Methyltransferase Complex May Affect Tumorigenesis. (A) Lysates of A375 stable transfectants harvested at different time points after treatment with cycloheximide (CHX) 10 μg/ml were analyzed by immunoblot. (B) LC-MS/MS quantification of the m^6A/A ratio in mRNA of A375 stable transfectants. (C) After 8 h treatment with 10 μM PD0325901 or 0.1 μM tramentib, cell lysates from A375 cells were analyzed by immunoblot. (D) LC-MS/MS quantification of the m^6A/A ratio in mRNA of A375 cells treated with 10 μM PD0325901 or 0.1 μM tramentib for 48 h. (E) After 8hr treatment with 10 μM EOAI3402143 (EOAI) or 30 μM vialinin A , cell lysates from A375 cells were analyzed by immunoblot. […] (H) LC-MS/MS quantification of the m^6A/A ratio in mRNA of SKBR3 and BT474 cells treated with 1 μM tucatinib and 1 μM lapatinib for 48 h. […]
FIGS. 14A-14I: Phosphorylation of the m^6A Methyltransferase Complex May Affect Tumorigenesis. […] (B) LC-MS/MS quantification of the m^6A/A ratio in mRNA of melanoma cell lines. (C) After 8 h treatment with 10 μM PD0325901 or 0.1 μM tramentib, cell lysates from HCT-116 cells were analyzed by immunoblot. […] The ubiquitination of METTL3 was detected by IP with anti-METTL3 and immunoblot with anti-HA. (F) After 8 hr treatment with 10 μM EOAI3402143 (EOAI) or 30 μM vialinin A, cell lysates from HCT-116 cells were analyzed by immunoblot. […]

ubiquitination of METTL3 = assay: Ubiquitination of METTL3 in A375 cells transfected with HA-ubiquitin (IP anti-METTL3, immunoblot anti-HA); type: cell-based, human; settings: 10 μM MG-132 and 10 μM EOAI3402143 or 30 μM vialinin A for 8 h
Protocol: (§5) FIGS. 11A-11G: USP5 is Required for ERK-Mediated METTL3 Stabilization. (A) A375 cells transfected with HA-ubiquitin (ub) were treated with 10 μM MG-132 and MEK inhibitor PD0325901 for 8 h. The ubiquitination of METTL3 was detected by IP with anti-METTL3 and immunoblot with anti-HA. (B) After 8 h treatment with 10 μM PD0325901 with or without 10 μM MG-132, cell lysates from A375 cells were analyzed by immunoblot. (C) A375 cells were treated with various concentrations of PD0325901 for 1 h. Cell lysates were subjected to IP with METTL3 antibody followed by immunoblot. (D) 293T cells transfected as indicated were subjected to IP/immunoblot analysis. (E) Immunofluorescence analysis of myc-METTL3 (green) in mESC stable transfectants. DAPI (blue) was used to mark the nucleus. (F) Lysates of 293T cells transfected as indicated were subjected to IP with anti-Flag antibody followed by immunoblot. (G) Immunofluorescence analysis of 293T cells co-transfected with myc-METTL3 (green), Flag-USP5 (red) with or without constitutively active B-RAF.
FIGS. 14A-14I: Phosphorylation of the m^6A Methyltransferase Complex May Affect Tumorigenesis. […] (B) LC-MS/MS quantification of the m^6A/A ratio in mRNA of melanoma cell lines. (C) After 8 h treatment with 10 μM PD0325901 or 0.1 μM tramentib, cell lysates from HCT-116 cells were analyzed by immunoblot. […] The ubiquitination of METTL3 was detected by IP with anti-METTL3 and immunoblot with anti-HA. (F) After 8 hr treatment with 10 μM EOAI3402143 (EOAI) or 30 μM vialinin A, cell lysates from HCT-116 cells were analyzed by immunoblot. […] (I) LC-MS/MS quantification of the m^6A/A ratio in mRNA of breast cancer cell lines.
Immunoprecipitation, immunoblotting, and in vitro kinase assay. […] Primary antibodies were detected by HRP-linked secondary antibodies (Cell Signaling) together with SuperSignal West Pico Plus chemiluminescent substrate (Thermo Scientific) and imaged in a FluorChem R system (ProteinSimple).

[5] = system: METTL3 / m^6A methyltransferase complex in A375 cells; assay: Immunoblot of METTL3 / m^6A methyltransferase complex protein in A375 cell lysates; type: cell-based, human; settings: A375 cells (also HCT-116, FIG. 14F), 8 hr, 10 μM EOAI3402143 or 30 μM vialinin A
Protocol: FIGS. 6A-6H: Phosphorylation of the m^6A Methyltransferase Complex May Affect Tumorigenesis. (A) Lysates of A375 stable transfectants harvested at different time points after treatment with cycloheximide (CHX) 10 μg/ml were analyzed by immunoblot. (B) LC-MS/MS quantification of the m^6A/A ratio in mRNA of A375 stable transfectants. (C) After 8 h treatment with 10 μM PD0325901 or 0.1 μM tramentib, cell lysates from A375 cells were analyzed by immunoblot. (D) LC-MS/MS quantification of the m^6A/A ratio in mRNA of A375 cells treated with 10 μM PD0325901 or 0.1 μM tramentib for 48 h. (E) After 8hr treatment with 10 μM EOAI3402143 (EOAI) or 30 μM vialinin A , cell lysates from A375 cells were analyzed by immunoblot. (F) A375 stable transfectants as indicated were treated with 3 μM EOAI3402143 (EOAI) or 10 μM vialinin A before measuring cell viability by SRB assay. Data are presented as relative to the R-WT cells without drug treatment (n=3 per group, data represent mean±SEM). (G) Immunofluorescence analysis of METTL3 (green) in SKBR3 cells treated with 1 μM tucatinib and 1 μM lapatinib for 8 hr. DAPI (blue) was used to mark the nucleus. (H) LC-MS/MS quantification of the m^6A/A ratio in mRNA of SKBR3 and BT474 cells treated with 1 μM tucatinib and 1 μM lapatinib for 48 h. (See also FIG. 14.)
as §5
Immunoprecipitation, immunoblotting, and in vitro kinase assay. Immunoprecipitation (IP) and immunoblotting (IB) were performed as previously described (Sun et al., 2016). In brief, protein samples were isolated from respective cells by lysis in RIPA buffer (1% Triton X-100, 150 mM NaCl, 20 mM Na2PO4, pH 7.4) containing Halt Protease and Phosphatase Inhibitor Cocktail (Thermo Scientific). Subsequently, a BCA assay (Thermo Scientific) was used to determine the protein concentrations. For IP, indicated antibody and protein A/G magnetic beads (Thermo Scientific) were incubated with lysate at 4° C. overnight followed by washing and elution with sample buffer. Equal amounts of protein were separated by SDS-PAGE followed by wet transfer to PVDF membranes. Blots were blocked with 5% non-fat milk or BSA and incubated with respective primary antibody at 4° C. overnight. Primary antibodies were detected by HRP-linked secondary antibodies (Cell Signaling) together with SuperSignal West Pico Plus chemiluminescent substrate (Thermo Scientific) and imaged in a FluorChem R system (ProteinSimple).

CCCc1cc(C)[nH]c(=O)c1CNC(=O)c1cc(-c2ccnc(N3CCN(C)CC3)c2)cc2c1cnn2C(C)C [GSK343]
combination effect on cell viability with the USP5 inhibitor EOAI (A375 and HCT116 cells): synergism

CCCc1cc(C)[nH]c(=O)c1CNC(=O)c1cc(-c2ccc(N3CCN(C(C)C)CC3)nc2)cc2c1cnn2C(C)C [UNC199]
combination effect on cell viability with the USP5 inhibitor EOAI (A375 and HCT116 cells): synergism

Cc1sc2c(c1C)C(c1ccc(Cl)cc1)=N[C@@H](CC(=O)OC(C)(C)C)c1nnc(C)n1-2 [JQ1]
polyA RNA m^6A, JQ1 treatment after METTL3 knockdown ([1]; 8902 cell line (JQ1-insensitive)): further reduced
polyA RNA m^6A changes ([1]; JQ1-insensitive PDAC cells, versus DMSO control): moderate to negligible
polyA RNA m^6A ([2]; JQ1-sensitive PDAC cells, versus DMSO control): dramatically decreased
polyA RNA m^6A level ([2]; Mia cell (JQ1-sensitive), dose-dependent): dramatic decreases
viability of JQ1-insensitive cells, knockdown of METTL3 together with JQ1 treatment [3]: synergistically reduce
inhibition effect (anticancer activity) (PDAC cell lines): varies among different cell types
effect of JQ1 treatment upon overexpression of METTL3 in JQ1-sensitive cell (JQ1-sensitive PDAC cells): inhibits
METTL3 RNA level (METTL3 in Mia cell): dramatic decreases
METTL3 protein level (METTL3 in Mia cell): dramatic decreases
METTL3 RNA level (METTL3 in 8902 cell line): moderate effect
METTL3 protein level (METTL3 in 8902 cell line): less of an effect

CCCC(NC(=O)/C(C#N)=C/c1nc(Cl)ccc1Cl)c1ccc(OCCN2CCOCC2)cc1 (centres unmarked) [EOAI3402143]
effect of knockdown of METTL3 on sensitivity of cells to the USP5 inhibitor [4]: sensitized
effect of overexpression of METTL3 on sensitivity of cells to the USP5 inhibitor [4]: attenuated
ubiquitination of METTL3 (ubiquitination of METTL3): increased
METTL3 protein level [5]: decreased
